Experimental data from patent publication US20260285850A1, “SUBSTITUTED OXAZOLIDINONES AND IMIDAZOLINONES AS HERBICIDES” (FMC CORPORATION, priority 2023, published 2026).

Assays:
Assay type in all cases: in vivo
[1] = test system: barnyardgrass (Echinochloa crus-galli); test: Test A preemergence soil spray, visual injury rating 0-100; conditions: 10 days, 0 = no effect, 100 = complete control
Procedure, shortened: (§1)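 Directed preemergence spray onto seeded soil or postemergence spray onto 2-10 cm plants (loam plus sand); compound carried in surfactant-containing non-phytotoxic solvent. Injury rated by eye after 10 d greenhouse growth; 0 = no effect, 100 = complete control.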

[2] = test system: blackgrass (Alopecurus myosuroides); test: as above; conditions: 10 days, 0 = no effect, 100 = complete control
Procedure, shortened: as §1

corn (Zea mays) [3] = test: as above; conditions: 10 days, 0 = no effect, 100 = complete control
Procedure, shortened: as §1

kochia (Bassia scoparia) [4] = test: as above; conditions: 10 days, 0 = no effect, 100 = complete control
Procedure, shortened: as §1

[5] = test system: oat, wild (wild oat, Avena fatua); test: as above; conditions: 10 days, 0 = no effect, 100 = complete control
Procedure, shortened: as §1

[6] = test system: palmer (palmer amaranth, palmer pigweed, Amaranthus palmeri); test: as above; conditions: 10 days, 0 = no effect, 100 = complete control
Procedure, shortened: as §1

[7] = test system: ragweed (common ragweed, Ambrosia artemisiifolia); test: as above; conditions: 10 days, 0 = no effect, 100 = complete control
Procedure, shortened: as §1

[8] = test system: ryegrass, Italian (italian ryegrass, Lolium multiflorum); test: as above; conditions: 10 days, 0 = no effect, 100 = complete control
Procedure, shortened: as §1

soybean (Glycine max) [9] = test: as above; conditions: 10 days, 0 = no effect, 100 = complete control
Procedure, shortened: as §1

[10] = test system: wheat (Triticum aestivum); test: as above; conditions: 10 days, 0 = no effect, 100 = complete control
Procedure, shortened: as §1

[11] = test system: barnyardgrass (Echinochloa crus-galli); test: Test A postemergence application, visual injury rating 0-100; conditions: 10 days
Procedure, shortened: as §1

[12] = test system: blackgrass (Alopecurus myosuroides); test: as above; conditions: 10 days
Procedure, shortened: as §1

corn (Zea mays) [13] = test: as above; conditions: 10 days
Procedure, shortened: as §1

[14] = test system: galium (catchweed bedstraw, Galium aparine); test: as above; conditions: 10 days
Procedure, shortened: as §1

[15] = test system: horseweed (Erigeron canadensis); test: as above; conditions: 10 days
Procedure, shortened: as §1

kochia (Bassia scoparia) [16] = test: as above; conditions: 10 days
Procedure, shortened: as §1

[17] = test system: oat, wild (wild oat, Avena fatua); test: as above; conditions: 10 days
Procedure, shortened: as §1

[18] = test system: palmer (palmer amaranth, palmer pigweed, Amaranthus palmeri); test: as above; conditions: 10 days
Procedure, shortened: as §1

[19] = test system: ragweed (common ragweed, Ambrosia artemisiifolia); test: as above; conditions: 10 days
Procedure, shortened: as §1

[20] = test system: ryegrass, Italian (italian ryegrass, Lolium multiflorum); test: as above; conditions: 10 days
Procedure, shortened: as §1

soybean (Glycine max) [21] = test: as above; conditions: 10 days
Procedure, shortened: as §1

[22] = test system: wheat (Triticum aestivum); test: as above; conditions: 10 days
Procedure, shortened: as §1

[23] = test system: barnyardgrass (Echinochloa crusgalli); test: Test B flooded paddy test, visual plant response rating 0-100; conditions: 250 g ai/ha, Flood, applied to paddy water, evaluated after 13 days
Procedure, shortened: (§2)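 Treatment occurs at the 2-leaf stage by adding compound to floodwater standing 3 cm above the soil, a level kept for the whole test. Plants stay in the greenhouse 13 days before visual comparison with controls.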

[24] = test system: ducksalad (Heteranthera limosa); test: as above; conditions: 250 g ai/ha, Flood, applied to paddy water, evaluated after 13 days
Procedure, shortened: as §2

rice (Oryza sativa) = test: as above; conditions: 250 g ai/ha, Flood, applied to paddy water, evaluated after 13 days
Procedure, shortened: as §2

[25] = test system: sedge, umbrella (small-flower umbrella sedge, Cyperus difformis); test: as above; conditions: 250 g ai/ha, Flood, applied to paddy water, evaluated after 13 days
Procedure, shortened: as §2

[26] = 31 g ai/ha, postemergence, 0 = no effect, 100 = complete control
[27] = Postemergence, 125 g ai/ha, 0 is no effect, 100 is complete control

COC(=O)C1=CCC(NC(=O)C2(C)CN(c3cc(Cl)cc(Cl)c3)C(=O)O2)C1 (stereo not drawn) [Compound 58]
Barnyardgrass plant response rating (0-100) ([1]; 31 g ai/ha): 80 | Barnyardgrass plant response rating (0 to 100 scale) ([1]; 125 g ai/ha): 90 | Blackgrass plant response rating (0-100) ([2]; 31 g ai/ha): 10 | Blackgrass plant response rating (0 to 100 scale) ([2]; 125 g ai/ha): 30 | Corn plant response rating (0-100) (corn (Zea mays) [3]; 31 g ai/ha): 10 | Corn plant response rating (0 to 100 scale) (corn (Zea mays) [3]; 125 g ai/ha): 60 | Kochia plant response rating (0-100) (kochia (Bassia scoparia) [4]; 31 g ai/ha): 10 | Kochia plant response rating (0 to 100 scale) (kochia (Bassia scoparia) [4]; 125 g ai/ha): 70 | Oat, Wild plant response rating (0-100) ([5]; 31 g ai/ha): 10 | Oat, Wild plant response rating (0 to 100 scale) ([5]; 125 g ai/ha): 30 | Amaranth, Palmer plant response rating (0-100) ([6]; 31 g ai/ha): 80 | Amaranth, Palmer plant response rating (0 to 100 scale) ([6]; 125 g ai/ha): 100 | Ragweed plant response rating (0-100) ([7]; 31 g ai/ha): 0 | Ragweed plant response rating (0 to 100 scale) ([7]; 125 g ai/ha): 30 | Ryegrass, Italian plant response rating (0-100) ([8]; 31 g ai/ha): 60 | Ryegrass, Italian plant response rating (0 to 100 scale) ([8]; 125 g ai/ha): 80 | Soybean plant response rating (0-100) (soybean (Glycine max) [9]; 31 g ai/ha): 20 | Soybean plant response rating (0 to 100 scale) (soybean (Glycine max) [9]; 125 g ai/ha): 50 | Wheat plant response rating (0-100) ([10]; 31 g ai/ha): 20 | Wheat plant response rating (0 to 100 scale) ([10]; 125 g ai/ha): 90 | Barnyardgrass plant response rating (0-100) [11, 26]: 90 | Barnyardgrass plant response rating (0 to 100 scale) [11, 27]: 90 | Blackgrass plant response rating (0-100) [12, 26]: 90 | Blackgrass plant response rating (0 to 100 scale) [12, 27]: 100 | Corn plant response rating (0-100) (corn (Zea mays) [13]; [26]): 100 | Corn plant response rating (0 to 100 scale) (corn (Zea mays) [13]; [27]): 100 | Galium plant response rating (0-100) [14, 26]: 90 | Galium plant response rating (0 to 100 scale) [14, 27]: 90 | Horseweed plant response rating (0-100) [15, 26]: 80 | Horseweed plant response rating (0 to 100 scale) [15, 27]: 90 | Kochia plant response rating (0-100) (kochia (Bassia scoparia) [16]; [26]): 80 | Kochia plant response rating (0 to 100 scale) (kochia (Bassia scoparia) [16]; [27]): 90 | Oat, Wild plant response rating (0-100) [17, 26]: 30 | Oat, Wild plant response rating (0 to 100 scale) [17, 27]: 70 | Amaranth, Palmer plant response rating (0-100) [18, 26]: 90 | Amaranth, Palmer / Pigweed, Palmer plant response rating (0 to 100 scale) [18, 27]: 100 | Ragweed plant response rating (0-100) [19, 26]: 30 | Ragweed plant response rating (0 to 100 scale) [19, 27]: 70 | Ryegrass, Italian plant response rating (0-100) [20, 26]: 90 | Ryegrass, Italian plant response rating (0 to 100 scale) [20, 27]: 90 | Soybean plant response rating (0-100) (soybean (Glycine max) [21]; [26]): 90 | Soybean plant response rating (0 to 100 scale) (soybean (Glycine max) [21]; [27]): 90 | Wheat plant response rating (0-100) [22, 26]: 60 | Wheat plant response rating (0 to 100 scale) [22, 27]: 90 | Plant response rating, Barnyardgrass (0 to 100 scale, 0 is no effect and 100 is complete control) [23]: 60 | Plant response rating, Ducksalad (0 to 100 scale, 0 is no effect and 100 is complete control) [24]: 95 | Plant response rating, Rice (0 to 100 scale, 0 is no effect and 100 is complete control) (rice (Oryza sativa)): 70 | Plant response rating, Sedge, Umbrella (0 to 100 scale, 0 is no effect and 100 is complete control) [25]: 98
